Assay results taken from ChEMBL document CHEMBL3997802, “Design, Synthesis, and Evaluation of Isaindigotone Derivatives To Downregulate c-myc Transcription via Disrupting the Interaction of NM23-H2 with G-Quadruplex” (J Med Chem, 2017).
Values belong to the compound of their own block, whether it stands above or below them. Calls of active or inactive are those of the source. No cut-off for these calls is given here.

How the values were obtained:
[1] = Inhibition of 5'-biotin-labeled c-Myc Pu18 G-quadruplex DNA (unknown origin) interaction with His-tagged NM23-H2 assessed as ratio of Kd for NM23-H2-DNA complex in presence of compound to Kd for […]-DNA complex in absence of compound at 20 uM preincubated with NM23-H2 for 1 hr followed by addition of DNA measured after overnight incubation by ELISA
[2] = Stabilization of 5'-FAM/3'-TAMRA labeled c-Myc Pu18 G-quadruplex DNA (unknown origin) assessed as change in melting temperature at 1 uM after overnight incubation by FRET assay
[3] = Inhibition of thiazole orange binding to c-Myc Pu18 G-quadruplex DNA (unknown origin) at 10 uM after 30 secs by fluorescence spectrophotometric method
[4] = Inhibition of thiazole orange binding to c-Myc Pu27 G-quadruplex DNA (unknown origin) at 10 uM after 30 secs by fluorescence spectrophotometric method
SiHa [5] = experiment: Cytotoxicity against human SiHa cells assessed as reduction in cell viability up to 2.2 uM after 48 hrs by MTT assay; format: cell-based
Homo sapiens [6] = species: Homo sapiens; experiment: Inhibition of NM23-H2 binding to c-Myc promoter DNA in human SiHa cell nuclear extract after 4 days by ChIP analysis
Homo sapiens [7] = species: Homo sapiens; experiment: Inhibition of NM23-H2 binding to c-Myc G-quadruplex DNA in human SiHa cells assessed as downregulation of c-Myc mRNA level after 4 days by RT-PCR method; format: cell-based
SiHa [8] = experiment: Effect on NM23-H2 mRNA level in human SiHa cells up to 2.2 uM after 4 days by RT-PCR method; format: functional, cell-based
Homo sapiens [9] = species: Homo sapiens; experiment: Inhibition of NM23-H2 binding to c-Myc G-quadruplex DNA in human SiHa cells assessed as downregulation of c-Myc protein expression at 0.5 times cytotoxic IC50 after 4 days by Western blot method; format: cell-based
SiHa [10] = experiment: Effect on NM23-H2 protein expression in human SiHa cells up to 2.2 uM after 4 days by Western blot method; format: functional, cell-based
[11] = Transrepression of c-Myc Pu43 G-quadruplex DNA (unknown origin) expressed in human SiHa cells after 48 hrs by luciferase reporter gene assay; format: cell-based
[12] = Transrepression of c-Myc Pu43 G-quadruplex DNA (unknown origin) expressed in human SiHa cells at 1.1 uM after 48 hrs by luciferase reporter gene assay relative to control; format: cell-based
[13] = Transrepression of c-Myc Pu43 G-quadruplex DNA (unknown origin) expressed in human SiHa cells at 1.65 uM after 48 hrs by luciferase reporter gene assay relative to control; format: cell-based
[14] = Transrepression of c-Myc Pu43 G-quadruplex DNA (unknown origin) expressed in human SiHa cells at 2.2 uM after 48 hrs by luciferase reporter gene assay relative to control; format: cell-based
[15] = Transrepression of c-Myc MUT Pu43 DNA (unknown origin) expressed in human SiHa cells up to 2.2 uM after 48 hrs by luciferase reporter gene assay relative to control; format: cell-based
Homo sapiens [16] = species: Homo sapiens; experiment: Transrepression of c-Myc G-quadruplex DNA in human SiHa cells at 2.2 uM after 96 hrs by DAPI staining based immunofluoresence microscopic method; format: cell-based
[17] = Induction of G-quadruplex formation in wild type c-Myc Pu43 DNA (unknown origin) in pH 7.4 Tris HCl at 25 uM after overnight incubation in absence of Kcl by CD spectroscopic analysis
SiHa [18] = experiment: Growth inhibition of human SiHa cells after 40 hrs by real time cellular analysis; format: functional, cell-based
[19] = Growth inhibition of mouse primary mesangial cells at 0.25 to 1 times cytotoxic IC50 after 100 hrs by real time cellular analysis; format: cell-based; conditions: primary mesangial cell
Homo sapiens [20] = species: Homo sapiens; experiment: Inhibition of NM23-H2 binding to c-Myc G-quadruplex DNA in human SiHa cells assessed as effect on phosphorylated p53 protein expression by Western blot method; format: cell-based
Homo sapiens [21] = species: Homo sapiens; experiment: Inhibition of NM23-H2 binding to c-Myc G-quadruplex DNA in human SiHa cells assessed as effect on p15 protein expression by Western blot method; format: cell-based
Homo sapiens [22] = species: Homo sapiens; experiment: Inhibition of NM23-H2 binding to c-Myc G-quadruplex DNA in human SiHa cells assessed as effect on cyclin D3 protein expression by Western blot method; format: cell-based
Homo sapiens [23] = species: Homo sapiens; experiment: Inhibition of NM23-H2 binding to c-Myc G-quadruplex DNA in human SiHa cells assessed as effect on BRCA1 protein expression by Western blot method; format: cell-based
Homo sapiens [24] = species: Homo sapiens; experiment: Inhibition of NM23-H2 binding to c-Myc G-quadruplex DNA in human SiHa cells assessed as effect on p27Kip1 protein expression by Western blot method; format: cell-based
Homo sapiens [25] = species: Homo sapiens; experiment: Inhibition of NM23-H2 binding to c-Myc G-quadruplex DNA in human SiHa cells assessed as effect on cleaved PARP protein expression by Western blot method; format: cell-based
Homo sapiens [26] = species: Homo sapiens; experiment: Inhibition of NM23-H2 binding to c-Myc G-quadruplex DNA in human SiHa cells assessed as effect on cleaved caspase-3 protein expression by Western blot method; format: cell-based
[27] = Effect on cleaved caspase-3 protein expression in mouse primary mesangial cells up to 2.2 uM by Western blot method; format: ADME, cell-based; conditions: primary mesangial cell
[28] = Effect on BRCA1 protein expression in mouse primary mesangial cells up to 2.2 uM by Western blot method; format: ADME, cell-based; conditions: primary mesangial cell
[29] = Effect on CDK6 protein expression in mouse primary mesangial cells up to 2.2 uM by Western blot method; format: ADME, cell-based; conditions: primary mesangial cell
[30] = Effect on NM23-H2 protein expression in mouse primary mesangial cells up to 2.2 uM by Western blot method; format: ADME, cell-based; conditions: primary mesangial cell
[31] = Effect on c-Myc protein expression in mouse primary mesangial cells up to 2.2 uM by Western blot method; format: ADME, cell-based; conditions: primary mesangial cell
[32] = target: T1, Cellular tumor antigen p53 (Mus musculus, UniProt P02340); experiment: Effect on p53 phosphorylation in mouse primary mesangial cells up to 2.2 uM by Western blot method; format: ADME
SiHa [33] = experiment: Growth inhibition of human SiHa cells transfected with NM23-H2 siRNA up to 4.4 uM after 100 hrs by real time cellular analysis; format: functional, cell-based
SiHa [34] = experiment: Inhibition of colony formation in human SiHa cells up to 1.1 uM after 7 days by crystal violet staining based assay; format: functional, cell-based
[35] = Inhibition of His-tagged NM23-H2 binding to 5'-biotin-labeled c-Myc Pu18 G-quadruplex DNA (unknown origin) after 10 mins by filter binding assay
[36] = Inhibition of His-tagged NM23-H2 binding to 5'-biotin-labeled c-Myc Pu18 ssDNA (unknown origin) after 10 mins by filter binding assay
[37] = Inhibition of unwinding activity of His-tagged NM23-H2 to 5'-FAM/3'-TAMRA labeled c-Myc Pu18 G-quadruplex DNA (unknown origin) by FRET assay
SiHa [38] = experiment: Cytotoxicity against human SiHa cells assessed as reduction in cell viability up to 8 uM after 48 hrs by MTT assay; format: cell-based
SiHa [39] = experiment: Effect on NM23-H2 mRNA level in human SiHa cells up to 8 uM after 4 days by RT-PCR method; format: functional, cell-based
SiHa [40] = experiment: Effect on NM23-H2 protein expression in human SiHa cells up to 8 uM after 4 days by Western blot method; format: functional, cell-based
[41] = Transrepression of c-Myc Pu43 G-quadruplex DNA (unknown origin) expressed in human SiHa cells at 4 uM after 48 hrs by luciferase reporter gene assay relative to control; format: cell-based
[42] = Transrepression of c-Myc Pu43 G-quadruplex DNA (unknown origin) expressed in human SiHa cells at 6 uM after 48 hrs by luciferase reporter gene assay relative to control; format: cell-based
[43] = Transrepression of c-Myc Pu43 G-quadruplex DNA (unknown origin) expressed in human SiHa cells at 8 uM after 48 hrs by luciferase reporter gene assay relative to control; format: cell-based
[44] = Transrepression of c-Myc MUT Pu43 DNA (unknown origin) expressed in human SiHa cells up to 8 uM after 48 hrs by luciferase reporter gene assay relative to control; format: cell-based
Homo sapiens [45] = species: Homo sapiens; experiment: Transrepression of c-Myc G-quadruplex DNA in human SiHa cells at 8 uM after 96 hrs by DAPI staining based immunofluoresence microscopic method; format: cell-based
SiHa [46] = experiment: Growth inhibition of human SiHa cells after 50 hrs by real time cellular analysis; format: functional, cell-based
[47] = Effect on cleaved caspase-3 protein expression in mouse primary mesangial cells up to 8 uM by Western blot method; format: ADME, cell-based; conditions: primary mesangial cell
[48] = Effect on BRCA1 protein expression in mouse primary mesangial cells up to 8 uM by Western blot method; format: ADME, cell-based; conditions: primary mesangial cell
[49] = Effect on CDK6 protein expression in mouse primary mesangial cells up to 8 uM by Western blot method; format: ADME, cell-based; conditions: primary mesangial cell
[50] = Effect on NM23-H2 protein expression in mouse primary mesangial cells up to 8 uM by Western blot method; format: ADME, cell-based; conditions: primary mesangial cell
[51] = Effect on c-Myc protein expression in mouse primary mesangial cells up to 8 uM by Western blot method; format: ADME, cell-based; conditions: primary mesangial cell
[52] = target: T1, Cellular tumor antigen p53; experiment: Effect on p53 phosphorylation in mouse primary mesangial cells up to 8 uM by Western blot method; format: ADME
SiHa [53] = experiment: Growth inhibition of human SiHa cells transfected with NM23-H2 siRNA up to 16 uM after 100 hrs by real time cellular analysis; format: functional, cell-based
SiHa [54] = experiment: Inhibition of colony formation in human SiHa cells up to 4 uM after 7 days by crystal violet staining based assay; format: functional, cell-based

T1 sequence (P02340 whole entry): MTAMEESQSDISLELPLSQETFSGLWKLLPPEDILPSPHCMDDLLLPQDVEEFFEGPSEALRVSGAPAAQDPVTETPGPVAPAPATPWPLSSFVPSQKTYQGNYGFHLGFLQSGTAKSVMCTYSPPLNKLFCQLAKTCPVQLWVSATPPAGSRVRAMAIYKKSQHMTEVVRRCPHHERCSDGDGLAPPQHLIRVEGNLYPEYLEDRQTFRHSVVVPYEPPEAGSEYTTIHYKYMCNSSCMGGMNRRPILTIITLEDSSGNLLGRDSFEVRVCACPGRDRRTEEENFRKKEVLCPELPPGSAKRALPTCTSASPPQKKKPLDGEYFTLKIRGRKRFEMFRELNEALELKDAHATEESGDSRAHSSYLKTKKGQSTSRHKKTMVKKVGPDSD

Ratio [1]: 3.4
ΔTm [2]: 12.9 °C
inhibition [3]: Active
inhibition [4]: Active
inhibition (Homo sapiens [6]): Dose-dependent effect
Activity [17]: Active
SMILES: CCN(CC)CCNC(=O)c1ccc(/C=C2\CCn3c2nc2cc(NCCCN4CCCC4)c(F)cc2c3=O)cc1
Activity (SiHa [5]): Non-Toxic
inhibition (Homo sapiens [7]): Dose-dependent effect
Activity (SiHa [8]): inactive
inhibition (Homo sapiens [9]): Active
Activity (SiHa [10]): inactive
Activity [11]: Dose-dependent effect
Activity [12]: 65.7%
Activity [13]: 41.4%
Activity [14]: 38%
Activity [15]: inactive
Activity (Homo sapiens [16]): Active
growth inhibition (GI) (SiHa [18]): Dose-dependent effect
growth inhibition (GI) [19]: Non-Toxic
inhibition (Homo sapiens [20]): Dose-dependent effect
inhibition (Homo sapiens [21]): Dose-dependent effect
inhibition (Homo sapiens [22]): Dose-dependent effect
inhibition (Homo sapiens [23]): Dose-dependent effect
inhibition (Homo sapiens [24]): Dose-dependent effect
inhibition (Homo sapiens [25]): Dose-dependent effect
inhibition (Homo sapiens [26]): Dose-dependent effect
Activity [27]: Non-Toxic
Activity [28]: Non-Toxic
Activity [29]: Non-Toxic
Activity [30]: Non-Toxic
Activity [31]: Non-Toxic
Activity [32]: Non-Toxic
growth inhibition (GI) (SiHa [33]): inactive
inhibition (SiHa [34]): Active

Ratio [1]: 4.3
inhibition [35]: Active
ΔTm [2]: 12.1 °C
inhibition [3]: Active
inhibition [4]: Active
inhibition [36]: Active
inhibition [37]: Active
inhibition (Homo sapiens [6]): Dose-dependent effect
Activity [17]: Active
SMILES: O=C(NCCCN1CCCC1)c1ccc(/C=C2\CCn3c2nc2cc(NCCN4CCCC4)c(F)cc2c3=O)cc1
Activity (SiHa [38]): Non-Toxic
inhibition (Homo sapiens [7]): Dose-dependent effect
Activity (SiHa [39]): inactive
inhibition (Homo sapiens [9]): Active
Activity (SiHa [40]): inactive
Activity [11]: Dose-dependent effect
Activity [41]: 73.4%
Activity [42]: 58.6%
Activity [43]: 42.3%
Activity [44]: inactive
Activity (Homo sapiens [45]): Active
growth inhibition (GI) (SiHa [46]): Dose-dependent effect
growth inhibition (GI) [19]: Non-Toxic
inhibition (Homo sapiens [20]): Dose-dependent effect
inhibition (Homo sapiens [21]): Dose-dependent effect
inhibition (Homo sapiens [22]): Dose-dependent effect
inhibition (Homo sapiens [23]): Dose-dependent effect
inhibition (Homo sapiens [24]): Dose-dependent effect
inhibition (Homo sapiens [25]): Dose-dependent effect
inhibition (Homo sapiens [26]): Dose-dependent effect
Activity [47]: Non-Toxic
Activity [48]: Non-Toxic
Activity [49]: Non-Toxic
Activity [50]: Non-Toxic
Activity [51]: Non-Toxic
Activity [52]: Non-Toxic
growth inhibition (GI) (SiHa [53]): inactive
inhibition (SiHa [54]): Active
